Converted amounts (≈) assume the structure as drawn.
What was measured:
Test in all cases: in vitro antibacterial activity, minimal inhibitory concentration
Assay type in all cases: cell-based
E. coli Brig = settings: for MIC: Escherichia coli
Description: (§1) The compounds of the invention are new chemical compounds that are used as pharmacological agents and especially as broad spectrum antibacterial agents. They are active in vitro against strains of both gram-positive and gram-negative bacteria.
(§2) Minimal Inhibitory Concentration (μg/ml)

E. coli Vogel = settings: for MIC: Escherichia coli
Description: as §1, §2

Entero. cloacae = settings: for MIC: Enterobacter cloacae
Description: as §1, §2

Klebs. pneu. = system: Klebs. pneu.
Description: as §1, §2

Prot. vulg. = system: Prot. vulg.
Description: as §1, §2

Pseudomonas #28 = settings: Pseudomonas #28, in vitro; for MIC: read-out: Minimal Inhibitory Concentration
Description: as §1, §2

Pseudomonas BRK 12-4-4 = settings: Pseudomonas BRK 12-4-4, in vitro; for MIC: BRK1244
Description: as §1, §2

Pseudomonas UI 18 = settings: Pseudomonas UI 18, in vitro; for MIC: UI18
Description: as §1, §2

Serr. marces. = system: Serr. marces.
Description: as §1, §2

Staph. aureus S18733 = settings: for MIC: Staphylococcus aureus
Description: as §1, §2

Staph. aureus UC-76 = settings: Staph. aureus UC-76, in vitro; for MIC: Staphylococcus aureus, UC76
Description: as §1, §2

Strep. fec. = system: Strep. fec.
Description: as §1, §2

Row | Structure (SMILES) | MIC (E. coli Brig) [mg/L] | MIC (E. coli Vogel) [mg/L] | MIC (Entero. cloacae) [mg/L] | MIC (Klebs. pneu.) [mg/L] | MIC (Prot. vulg.) [mg/L] | MIC (Pseudomonas #28) [mg/L] | MIC (Pseudomonas BRK 12-4-4) [mg/L] | MIC (Pseudomonas UI 18) [mg/L] | MIC (Serr. marces.) [mg/L] | MIC (Staph. aureus S18733) [mg/L] | MIC (Staph. aureus UC-76) [mg/L] | MIC (Strep. fec.) [mg/L] | further results
1 | CC(=O)OCC1=C(C(=O)O)N2C(=O)[C@@H](NC(=O)[C@H](NC(=O)c3cnc(-c4ccc(NC(=O)[C@@H](C)N)cc4)nc3O)c3ccccc3)[C@H]2SC1 [Example 18, N-[2-[4-(D-Alanylamino)phenyl]-4-hydroxy-5-pyrimidinylcarbonyl]-7-[D-2-amino-2-phenylacetamido]-3-acetoxymethyl-3cephem-4-carboxylic acid] | 50 (≈ 72.5 µM) | 12.5 (≈ 18.1 µM) | 50 (≈ 72.5 µM) | 25 (≈ 36.2 µM) | 25 (≈ 36.2 µM) | 3.1 (≈ 4.49 µM) | 6.3 (≈ 9.13 µM) | 1.6 (≈ 2.32 µM) | > 50 | 6.3 (≈ 9.13 µM) | 1.6 (≈ 2.32 µM) | 25 (≈ 36.2 µM) | 
2 | CC(=O)N[C@H](C)C(=O)Nc1ccc(-c2ncc(C(=O)N[C@@H](C(=O)N[C@@H]3C(=O)N4C(C(=O)O)=C(COC(C)=O)CS[C@H]34)c3cccs3)c(O)n2)cc1 [Example 19, N-[2-[4-(N-Acetyl-D-alanylamino)phenyl]-4-hydroxy-5-pyrimidinylcarbonyl]-7-[D-2-amino-2-(2-thienyl)acetamido]-3-acetoxymethyl-3-cephem-4-carboxylic acid] | > 50 | 12.5 (≈ 16.9 µM) | 50 (≈ 67.8 µM) | 12.5 (≈ 16.9 µM) | 25 (≈ 33.9 µM) | 6.3 (≈ 8.54 µM) | 6.3 (≈ 8.54 µM) | 6.3 (≈ 8.54 µM) | > 50 | 1.6 (≈ 2.17 µM) | 0.8 (≈ 1.08 µM) | 25 (≈ 33.9 µM) | 
3 | CC(=O)N[C@H](C)C(=O)Nc1ccc(-c2ncc(C(=O)N[C@@H](C(=O)N[C@@H]3C(=O)N4C(C(=O)O)=C(COC(N)=O)CS[C@H]34)c3ccccc3)c(O)n2)cc1 [Example 21] | 25 (≈ 34.1 µM) | 12.5 (≈ 17.1 µM) | 25 (≈ 34.1 µM) | 12.5 (≈ 17.1 µM) | 12.5 (≈ 17.1 µM) | 3.1 (≈ 4.23 µM) | 12.5 (≈ 17.1 µM) | 12.5 (≈ 17.1 µM) | > 50 | 1.6 (≈ 2.18 µM) | 0.8 (≈ 1.09 µM) | 25 (≈ 34.1 µM) | 
4 | CC(=O)NCC(=O)Nc1ccc(-c2ncc(C(=O)N[C@@H](C(=O)NC3C(=O)N4C(C(=O)O)=C(CSc5nnnn5C)CSC34)c3ccccc3)c(O)n2)cc1 (stereo partly drawn) [Example 22] | 6.3 (≈ 8.14 µM) | 0.8 (≈ 1.03 µM) | 6.3 (≈ 8.14 µM) | 0.8 (≈ 1.03 µM) | 6.3 (≈ 8.14 µM) | 6.3 (≈ 8.14 µM) | 12.5 (≈ 16.2 µM) | 12.5 (≈ 16.2 µM) | 50 (≈ 64.6 µM) | 3.1 (≈ 4.01 µM) | 1.6 (≈ 2.07 µM) | 50 (≈ 64.6 µM) | 
5 | CC(=O)N[C@H](C)C(=O)Nc1ccc(-c2ncc(C(=O)N[C@@H](C(=O)NC3C(=O)N4C(C(=O)O)=C(CSc5nnnn5C)CSC34)c3ccccc3)c(O)n2)cc1 (stereo partly drawn) [Example 25, N-[2-[4-(N-Acetyl-D-alanylamino)phenyl]-4-hydroxy-5-pyrimidinylcarbonyl]-7-[D-2-amino-2-phenylacetamido]-3-[[(1-methyl-1H-tetrazol-5-yl)thio]methyl]-3-cephem-4-carboxylic acid] | 6.3 (≈ 8 µM) | 3.1 (≈ 3.93 µM) | 6.3 (≈ 8 µM) | 3.1 (≈ 3.93 µM) | 12.5 (≈ 15.9 µM) | 3.1 (≈ 3.93 µM) | 6.3 (≈ 8 µM) | 6.3 (≈ 8 µM) | 50 (≈ 63.5 µM) | 6.3 (≈ 8 µM) | 1.6 (≈ 2.03 µM) | > 50 | 
6 | CC(=O)N[C@@H](C)C(=O)Nc1ccc(-c2ncc(C(=O)N[C@@H](C(=O)NC3C(=O)N4C(C(=O)O)=C(CSc5nnnn5C)CSC34)c3ccccc3)c(O)n2)cc1 (stereo partly drawn) [Example 26, N-[2-[4-(N-Acetyl-L-alanylamino)phenyl]-4-hydroxy-5-pyrimidinylcarbonyl]-7-[D-2-amino-2-phenylacetamido]-3-[[(1-methyl-1H-tetrazol-5-yl)thio]methyl]-3-cephem-4-carboxylic acid] | 12.5 (≈ 15.9 µM) | 3.1 (≈ 3.93 µM) | 12.5 (≈ 15.9 µM) | 6.3 (≈ 8 µM) | 12.5 (≈ 15.9 µM) | 6.3 (≈ 8 µM) | 12.5 (≈ 15.9 µM) | 12.5 (≈ 15.9 µM) | 50 (≈ 63.5 µM) | 12.5 (≈ 15.9 µM) | 6.3 (≈ 8 µM) | 50 (≈ 63.5 µM) | 
7 | CC(=O)NCCCC(=O)Nc1ccc(-c2ncc(C(=O)N[C@@H](C(=O)NC3C(=O)N4C(C(=O)O)=C(CSc5nnnn5C)CSC34)c3ccccc3)c(O)n2)cc1 (stereo partly drawn) [Example 27, N-[2-[4-(N-Acetyl-aminobutyrylamino)phenyl]-4-hydroxy-5-pyrimidinylcarbonyl]-7-[D-2-amino-2-phenylacetamido]-3-[[(1-methyl-1H-tetrazol-5-yl)thio]methyl]-3-cephem-4-carboxylic acid] | 12.5 (≈ 15.6 µM) | 1.6 (≈ 2 µM) | 6.3 (≈ 7.86 µM) | 1.6 (≈ 2 µM) | 12.5 (≈ 15.6 µM) | 3.1 (≈ 3.87 µM) | 12.5 (≈ 15.6 µM) | 6.3 (≈ 7.86 µM) | 25 (≈ 31.2 µM) | 6.3 (≈ 7.86 µM) | 1.6 (≈ 2 µM) | 25 (≈ 31.2 µM) | 
8 | CC(=O)NC(C)(C)C(=O)Nc1ccc(-c2ncc(C(=O)N[C@@H](C(=O)NC3C(=O)N4C(C(=O)O)=C(CSc5nnnn5C)CSC34)c3ccccc3)c(O)n2)cc1 (stereo partly drawn) [Example 28] | 12.5 (≈ 15.6 µM) | 3.1 (≈ 3.87 µM) | 6.3 (≈ 7.86 µM) | 6.3 (≈ 7.86 µM) | 25 (≈ 31.2 µM) | 3.1 (≈ 3.87 µM) | 6.3 (≈ 7.86 µM) | 6.3 (≈ 7.86 µM) | 50 (≈ 62.4 µM) | 6.3 (≈ 7.86 µM) | 3.1 (≈ 3.87 µM) | 50 (≈ 62.4 µM) | 
9 | CC(=O)N[C@@H](C(=O)Nc1ccc(-c2ncc(C(=O)N[C@@H](C(=O)NC3C(=O)N4C(C(=O)O)=C(CSc5nnnn5C)CSC34)c3ccccc3)c(O)n2)cc1)C(C)C (stereo partly drawn) [Example 29] | 12.5 (≈ 15.3 µM) | 1.6 (≈ 1.96 µM) | 12.5 (≈ 15.3 µM) | 3.1 (≈ 3.8 µM) | 6.3 (≈ 7.72 µM) | 6.3 (≈ 7.72 µM) | 12.5 (≈ 15.3 µM) | 6.3 (≈ 7.72 µM) | 50 (≈ 61.3 µM) | 3.1 (≈ 3.8 µM) | 1.6 (≈ 1.96 µM) | 25 (≈ 30.6 µM) | 
10 | CC(=O)N1C[C@H](O)C[C@H]1C(=O)Nc1ccc(-c2ncc(C(=O)N[C@@H](C(=O)NC3C(=O)N4C(C(=O)O)=C(CSc5nnnn5C)CS[C@H]34)c3ccccc3)c(O)n2)cc1 (stereo partly drawn) [Example 30, N-[2[4-(N-Acetyl-L-hydroxyprolylamino)phenyl]-4-hydroxy-5-pyrimidinylcarbonyl]-7-[D-2-amino2-phenylacetamido]-3-[[(1-methyl-1H-tetrazol-5-yl)thio]methyl]-3-cephem-4-carboxylic acid] |  |  |  |  |  |  |  |  |  |  |  |  | Minimal Inhibitory Concentration (E. coli Brig): 12.5 µg/mL; Minimal Inhibitory Concentration (E. coli Vogel): 3.1 µg/mL; Minimal Inhibitory Concentration (Entero. cloacae): 6.3 µg/mL; Minimal Inhibitory Concentration (Klebs. pneu.): 3.1 µg/mL; Minimal Inhibitory Concentration (Prot. vulg.): 25 µg/mL; Minimal Inhibitory Concentration (Pseudomonas #28): 6.3 µg/mL; Minimal Inhibitory Concentration (Pseudomonas BRK 12-4-4): 12.5 µg/mL; Minimal Inhibitory Concentration (Pseudomonas UI 18): 6.3 µg/mL; Minimal Inhibitory Concentration (Serr. marces.): > 50 µg/mL; Minimal Inhibitory Concentration (Staph. aureus S18733): 12.5 µg/mL; Minimal Inhibitory Concentration (Staph. aureus UC-76): 3.1 µg/mL; Minimal Inhibitory Concentration (Strep. fec.): > 50 µg/mL
11 | CC(=O)N[C@H](C)C(=O)Nc1ccc(-c2ncc(C(=O)N[C@@H](C(=O)NC3C(=O)N4C(C(=O)O)=C(CSc5nnnn5C)CSC34)c3ccc(O)cc3)c(O)n2)cc1 (stereo partly drawn) [Example 31, N-[2[4-(N-Acetyl-D-alanylamino)phenyl]-4-hydroxy-5-pyrimidinyl-carbonyl]-7-[D-2-amino-2-(4-hydroxyphenyl)acetamido]-3-[[(1-methyl-1H-tetrazol-5-yl)thiol]methyl]-3-cephem-4-carboxylic acid] | 6.3 (≈ 7.84 µM) | 1.6 (≈ 1.99 µM) | 6.3 (≈ 7.84 µM) | 1.6 (≈ 1.99 µM) | 6.3 (≈ 7.84 µM) | 3.1 (≈ 3.86 µM) | 3.1 (≈ 3.86 µM) | 3.1 (≈ 3.86 µM) | 50 (≈ 62.2 µM) | 6.3 (≈ 7.84 µM) | 3.1 (≈ 3.86 µM) | 25 (≈ 31.1 µM) | 

From patent US4311699A, “Aminoacid derivatives of cephalosporin compounds” (priority 1980, dated 1982)
